{"source": "patent US20080108661A1", "about": "“Medicaments” (AstraZeneca AB, priority 2006, published 2008)", "molecules": {"B1": {"name": "Eotaxin 2: the CCR3 ligand, a chemokine used to stimulate cartilage explants (protein, UniProt O00175 27-119, looked up)", "C-C motif chemokine 24": "VVIPSPCCMFFVSKRIPENRVVSYQLSSRSTCLKAGVIFTTKKGQQFCGDPKQEWVQRYMKNLDAKQKKASPRARAVAVKGPVQRYPGNQTTC"}}, "key": {"[1]": {"system": "murine articular knee joint", "experiment": "Histamine-induced joint oedema, murine articular knee joint (calliper measurements)", "assay_type": "in vivo, mouse", "excerpt": "(§1) (iii) In Vivo Functional Validation of Histamine-Induced Responses Murine Articular Knee Joint\n(§2) It is hypothesised that histamine released by trafficking mast cells or by the de novo synthesis of histamine by articular chondrocytes induces a H1-dependant increase in COX-2 mRNA expression and elevated PGE2 synthesis in synovial fibroblasts and articular chondrocytes. To evaluate the role of histamine in pathological processes in the joint, a pharmacodynamic mouse model was developed to investigate the effect of intra-articular injection (IAI) of histamine on joint swelling using calliper measurements, and measuring PGE2 and/or 11-6 levels from synovial knee joint ravages.\n(§3) Adult C57B16 mice were dosed with either vehicle or test compound 1 hour prior to intra-articular injection of histamine (5 μmol). Swelling was induced by injection of 6 μl of histamine/saline suspension into the knee joint cavity under inhalation anaesthesia with isoflurane. Joint swelling was quantified by calliper measurements taken at 1, 6, 12, 24, 36 and 48 hr. Terminal synovial fluid knee lavages were sampled and levels of the inflammatory mediator I1-6 were measured in the fluid from synovial knee joint ravages."}, "[2]": {"system": "human articular chondrocytes (HAC)", "method": "(i) Isolation of Human Articular Chondrocytes (HAC) from OA Cartilage for Histamine stimulation. HAC are isolated from cartilage from osteoarthritic tissues removed at joint replacement. Cartilage is incubated overnight in 2 mg/ml collagenase in DMEM+10% FCS+PSG at 37° C., with shaking. The resulting cell suspension is filtered to remove undigested cartilage and the cells are centrifuged at 1200 rpm for 10 minutes. Cells are resuspended in DMEM plus 10% FCS PSG/NEAA/fungizone/gentamycin, plated at approx 5×10^−6 in a T-75 and grown to confluence. Cells are subsequently plated at approx 10,000 cells per well into 96 well plates for stimulation with histamine. Triplicate wells of first passage HAC are treated with either DMEM (10% or 0% FCS) alone (control), or DMEM (10% or 0% FCS) plus histamine (dose range 10 nM up to 1 mM). Cells are incubated at 37° C. for 24 hours, the conditioned medium harvested, and assayed for PGE2, MMP or cytokine production by enzyme linked immunosorbent assay (ELISA). […] For some experiments cells are incubated with specific antagonists for 20 minutes prior to, and in combination with, histamine stimulation."}, "[3]": {"system": "human articular chondrocytes (HAC)", "remark": "listed apart in the source"}, "[4]": {"system": "murine articular knee joint", "conditions": "intra-articular histamine injection, mice", "excerpt": "as §1, §2, §3"}, "CCR3": {"target": "T1, CCR3 (Homo sapiens, UniProt P51677)", "T1 construct": "Human osteoarthritic cartilage is obtained during total knee replacement surgery; from tissue; host or cells: human osteoarthritic knee articular cartilage explants (femoral condyles and tibial plateau)", "T1 sequence (P51677 1-355)": "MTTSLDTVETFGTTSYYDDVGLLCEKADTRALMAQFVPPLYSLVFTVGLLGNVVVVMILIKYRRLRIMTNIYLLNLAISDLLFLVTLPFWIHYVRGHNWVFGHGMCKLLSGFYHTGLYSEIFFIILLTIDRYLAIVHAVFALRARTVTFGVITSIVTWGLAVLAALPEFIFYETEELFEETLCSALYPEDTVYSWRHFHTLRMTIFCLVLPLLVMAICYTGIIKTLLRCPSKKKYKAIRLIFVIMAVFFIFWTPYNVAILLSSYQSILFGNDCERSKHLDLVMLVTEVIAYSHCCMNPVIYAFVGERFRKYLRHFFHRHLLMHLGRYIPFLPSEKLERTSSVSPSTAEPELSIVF", "experiment": "Chemokine (CCR3 ligand) stimulation of human OA cartilage explant, gene expression (low density array Q-PCR)", "assay_type": "cell-based", "excerpt": "(ii) Chemokine Stimulation of Human Cartilage Explant\nHuman osteoarthritic cartilage is obtained during total knee replacement surgery. Full-depth cartilage slices are obtained from both the femoral condyles and the tibial plateau and explant discs removed using a 5 mm diameter KAI sterile dermal biopsy punch. After dissection, the explants are all pooled in a Petri dish. For each condition, sixteen explants are randomly taken from the Petri dish and cultured in polypropylene 96-well plates with phenol red free Dulbecco's Modified Eagle Medium (DMEM; Gibco, Grand Island, N.Y.), 150 μg/ml gentamicin, 1.5 μg/ml fungizone and 100 units/ml penicillin, 100 μg/ml streptomycin and L-Glutamine.\nAfter an initial 48 hour pre-stimulation, rest period, experimental reagents are added for 24, 48 or 96 hours. Explants are incubated with the appropriate concentration of compound alone, or DMSO as a control, for 20 minutes prior to addition of the chemokine. Cartilage is subsequently treated with either vehicle control (plus DMSO); chemokine (at 30-300 ng/ml) plus DMSO; or chemokine (30 ng/ml) plus the compound of Example 1. Conditioned media are collected 24, 48 or 96 hours post stimulation and stored at −20° C. prior to analysis. Cartilage explants are also collected and snap frozen in liquid nitrogen, prior to RNA extraction.\nExtraction of RNA from Cartilage Explants\nEach condition is composed of sixteen cartilage explant discs, which are pooled prior to snap freezing in liquid nitrogen. These pooled samples are ground to a fine powder under liquid nitrogen then resuspended in 10 ml trizol in polypropylene Oakridge tubes, and RNA extracted according to the manufacturer's protocol. The RNA pellet is resuspended in approx 500 μl RNAse and DNAse free water and then combined with 1.75 ml Qiagen RLT. RNA is further purified with Qiagen RNEasy mini columns (Qiagen Cat# 74104), as described in the manufacturer's protocol, including on column DNA digestion. The RNA obtained by these procedures is analysed using Agilent bioanalyser technology, according to the manufacturer's instructions, to determine the quantity and quality.\nGene Expression Analysis: the 96 and 48 Gene Fingerprints Using Low Density Arrays (Q-PCR)\nLow-density gene arrays [quantitative polymerise chain reaction (Q-PCR) method] with either 96 or 48 genes pertinent to OA (as identified by Affymetrix microarray analysis of OA articular cartilage) are used to assess the effects of treating human diseased cartilage explants with the chemokines eotaxin-2 or RANTES, alone or in combination with the compound of Example 1. Gene expression changes were reported as fold change normalised against a standard non-affected gene: GAPDH."}, "[5]": {"conditions": "Eotaxin 2 stimulation, donor 014—04"}}}
{"molecule": "Clc1ccc2c(c1)CCc1cccnc1C2=C1CCNCC1", "note": "[desloratadine]", "values": [{"measurement": "histamine-induced joint swelling under treatment", "setting": "[1]; 5.1 mg/kg, dosed 1 hour prior to intra-articular histamine", "result": "almost completely ablated"}]}
{"molecule": "O=C(O)COCCN1CCN(C(c2ccccc2)c2ccc(Cl)cc2)CC1", "note": "(stereo not shown) [cetirizine]", "values": [{"measurement": "inhibition of histamine-induced PGE2 release", "setting": "[2]; 100 nM (FIG. 2)", "result": "inhibited"}, {"measurement": "inhibition of histamine-induced increase in Cox2 mRNA expression", "setting": "[3]; 100 nM", "result": "inhibited"}]}
{"molecule": "NCCc1c[nH]cn1", "note": "[histamine, 2-(4-imidazolyl)-ethylamine]", "values": [{"measurement": "increase in joint oedema compared to vehicle control animals", "setting": "[1]; intra-articular injection of histamine (5 μmol), C57B16 mice", "result": 5, "unit": "fold"}, {"measurement": "release of PGE2", "setting": "[2]; histamine stimulation, n=6 (FIG. 2)", "result": "dose dependent increase"}, {"measurement": "increase in release of IL-6 into the synovial fluid", "setting": "[4]", "result": "> 60", "unit": "%"}, {"measurement": "Cox2 mRNA expression levels", "setting": "[3]; histamine stimulation", "result": "increase"}]}
{"molecule": "O=C(NC[C@@H](O)CN1CCC(Oc2ccc(Cl)c(Cl)c2)CC1)c1sc(=O)[nH]c1C(F)(F)F", "note": "[Example 1, N-{(2R)-3-[4-(3,4-Dichlorophenoxy)piperidin-1-yl]-2-hydroxypropyl}-2,3-dihydro-2-oxo-4-(trifluoromethyl)-5-thiazolecarboxamide benzenesulfonate Form A]", "values": [{"measurement": "inhibition of CCR3 ligand-induced increase in ADAMTS4, MMP13, IL-6, IL-8 and MMP2 mRNA expression", "setting": "CCR3; at 3×pA2, n=3 (FIG. 3)", "result": "inhibited"}]}
{"molecule": "B1", "values": [{"measurement": "increased expression of IL-6", "setting": "CCR3; [5]", "result": 14, "unit": "fold"}, {"measurement": "increased expression of IL-8", "setting": "CCR3; [5]", "result": 11, "unit": "fold"}, {"measurement": "elevation of periostin expression", "setting": "CCR3; donor 014—04", "result": 2, "unit": "fold"}, {"measurement": "enhanced expression of ADAMTS4", "setting": "CCR3; donor 014—04", "result": 3.6, "unit": "fold"}, {"measurement": "enhanced expression of ADAMTS 5", "setting": "CCR3; donor 014—04", "result": 6, "unit": "fold"}]}
